The values below come from patent US5332574A, “Compounds produced by a strain of Streptomyces exfoliatus” (Bristol-Myers Squibb Company, priority 1993, dated 1994).

Molecules are shown by their SMILES. Converted amounts (≈) assume the structure as drawn. Where two headings read alike, the source gives them in different places.

Assay in all cases: MIC, serial two-fold agar dilution method
Assay type in all cases: cell-based

In test [1] the test system is Bacillus subtilis ATCC 6633. The method, then: (§1) The minimum inhibitory concentrations (MICs) of BU-4726G-A and BU-4726G-B were determined against various bacteria and fungi by the serial two-fold agar dilution method. Nutrient agar medium (Eiken) was used for bacteria and Sabouraud dextrose agar medium (Difco) for fungi.
(§2) Medium: Nutrient agar (Eiken, pH 7.0)
(§3) Inoculum size: 10^5 cells/ml
(§4) Inoculated conditions: 32° C., 20 hours

The test system of a further test is Escherichia coli Juhl. As to the method:
as §1, §2, §3, §4

For the next test, the system named is Escherichia coli K12. The following applies: Nutrient agar pH 7.0, 10^5 cells/ml, 32° C., 20 hours. The method, then:
as §1, §2, §3, §4

Test [2] deals with Klebsiella pneumoniae PCI 602. The method, then:
as §1, §2, §3, §4

For test [3], the system named is Micrococcus luteus ATCC 9341. As to the method: as §1, §2, §3, §4
Test [4] concerns Pseudomonas aeruginosa A9843 A. The following applies: A9843A. The method, then:
as §1, §2, §3, §4

The subject of another test is Salmonella typhi 901. The following applies: Salmonella enterica, 20 h, pH 7. The method, then:
as §1, §2, §3, §4

Test [5] concerns Staphylococcus aureus 209P. As to the method: as §1, §2, §3, §4
Test [6] concerns Staphylococcus aureus A15036(MRSA). As to the method:
as §1, §2, §3, §4

The subject of test [7] is Staphylococcus aureus Smith. As to the method:
as §1, §2, §3, §4

The subject of test [8] is Staphylococcus epidermidis 11-1168. The following applies: 111168, Nutrient agar pH 7.0, 10^5 cells/ml, 32° C., 20 hours. The method, then: as §1, §2, §3, §4
Test [9] deals with Streptococcus faecalis A2808. The following applies: Enterococcus faecalis, A2808, 20 h, pH 7. As to the method:
as §1, §2, §3, §4

As for `NCC[C@H](O)C(=O)N[C@@H]1C[C@H](N)[C@@H](O[C@H]2O[C@H](CN)[C@@H](O)[C@H](O)[C@H]2O)[C@H](O)[C@H]1O[C@H]1O[C@H](CO)[C@@H](O)[C@H](N)[C@H]1O` [Amikacin], the minimum inhibitory concentration (MIC) was found to be 0.4 µg/mL (≈ 0.683 µM) in [1] (ATCC6633, Bacillus subtilis ATCC 6633, Nutrient agar pH 7.0, 10^5 cells/ml, 32° C., 20 hours, read-out: MIC); 3.1 µg/mL (≈ 5.29 µM) in the test on Escherichia coli Juhl (Escherichia coli Juhl, Nutrient agar pH 7.0, 10^5 cells/ml, 32° C., 20 hours, read-out: MIC); 0.8 µg/mL (≈ 1.37 µM) against Escherichia coli K12; 0.4 µg/mL (≈ 0.683 µM) in test [2] (PCI602, Klebsiella pneumoniae PCI 602, Nutrient agar pH 7.0, 10^5 cells/ml, 32° C., 20 hours, read-out: MIC); 3.1 µg/mL (≈ 5.29 µM) in test [3] (ATCC9341, Micrococcus luteus ATCC 9341, Nutrient agar pH 7.0, 10^5 cells/ml, 32° C., 20 hours, read-out: MIC); 3.1 µg/mL (≈ 5.29 µM) in [4] (Pseudomonas aeruginosa A9843 A, Nutrient agar pH 7.0, 10^5 cells/ml, 32° C., 20 hours, read-out: MIC). For the same molecule, the MIC against Salmonella typhi 901 amounted to 3.1 µg/mL (≈ 5.29 µM); in test [5] (Staphylococcus aureus 209P, Nutrient agar pH 7.0, 10^5 cells/ml, 32° C., 20 hours, read-out: MIC), 0.4 µg/mL (≈ 0.683 µM); in test [6] (Staphylococcus aureus A15036(MRSA), Nutrient agar pH 7.0, 10^5 cells/ml, 32° C., 20 hours, read-out: MIC) it was 3.1 µg/mL (≈ 5.29 µM); in [7] (Staphylococcus aureus Smith, Nutrient agar pH 7.0, 10^5 cells/ml, 32° C., 20 hours, read-out: MIC), 1.6 µg/mL (≈ 2.73 µM); in [8], 50 µg/mL (≈ 85.4 µM); in test [9], 50 µg/mL (≈ 85.4 µM).

As for `N[C@@H](C(=O)N[C@@H]1C(=O)N2C(C(=O)O)=C(Cl)CS[C@H]12)c1ccccc1` [Cefaclor], the MIC in test [1] (Bacillus subtilis, ATCC6633, 20 h, pH 7) was less than 0.05 µg/mL; against Escherichia coli Juhl (Escherichia coli, 20 h, pH 7), 0.4 µg/mL (≈ 1.09 µM); in the test on Escherichia coli K12, 0.4 µg/mL (≈ 1.09 µM); in test [2] (Klebsiella pneumoniae, PCI602, 20 h, pH 7), 0.2 µg/mL (≈ 0.544 µM); in test [3] (Micrococcus luteus, ATCC9341, 20 h, pH 7), less than 0.05 µg/mL; in test [4] (Pseudomonas aeruginosa, 20 h, pH 7), more than 100 µg/mL. In addition, the minimum inhibitory concentration (MIC) amounted to 0.2 µg/mL (≈ 0.544 µM) against Salmonella typhi 901; 0.8 µg/mL (≈ 2.18 µM) in [5] (Staphylococcus aureus, 209P, 20 h, pH 7); 25 µg/mL (≈ 68 µM) in test [6] (Staphylococcus aureus, MRSA, 20 h, pH 7); 0.4 µg/mL (≈ 1.09 µM) in [7] (Staphylococcus aureus, 20 h, pH 7); 25 µg/mL (≈ 68 µM) in test [9].
